According to PubChem BioAssay (NCI):
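Dose response: 5 concentrations. Exposure: 48 h. Format: 96-well plates. Endpoint: linear interpolation; highest concentration if not reached. Abbreviation: GI50, concentration required for 50% inhibition of growth. TGI is the concentration that stops growth completely.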

Assays:
Test in all cases: growth of human tumour cells (NCI), 48 h
[1] = system: HT29 colon
[2] = system: HCT-116 colon
[3] = system: HOP-62 NSCLC
[4] = system: COLO 205 colon
[5] = system: NCI/ADR-RES ovarian
[6] = system: RXF 393 renal
[7] = system: HL-60(TB) leukemia
[8] = system: NCI-H23 lung
[9] = system: SF-268 CNS
[10] = system: SK-MEL-28 melanoma

Cn1cc(C2=C(c3cn(C)c4ccc(Cl)cc34)C(=O)NC2=O)c2ccccc21
GI50 [1]: 1.23 µM | TGI [1]: 8.38 µM | GI50 [2]: 1.52 µM | TGI [2]: 7.42 µM | GI50 [3]: 3.79 µM | TGI [3]: 17.8 µM | GI50 [4]: 1.67 µM | TGI [4]: 7.93 µM | GI50 [5]: 3.82 µM | TGI [5]: > 23 µM | GI50 [6]: 3.19 µM | TGI [6]: 7.76 µM | GI50 [7]: 1.4 µM | TGI [7]: 8.82 µM | GI50 [8]: 4.64 µM | TGI [8]: 14.6 µM | GI50 [9]: 5.51 µM | TGI [9]: > 25 µM | GI50 [10]: 4.26 µM | TGI [10]: 19.6 µM

COc1ccc(-c2nc(-c3nc4ccc(F)cc4[nH]3)c3ccccn23)cc1
GI50 [1]: 7.13 µM | TGI [1]: > 100 µM | GI50 [2]: 3.61 µM | TGI [2]: 17.8 µM | GI50 [3]: 7.41 µM | TGI [3]: 32.3 µM | GI50 [4]: 78.1 µM | TGI [4]: > 100 µM | GI50 [5]: 6.5 µM | TGI [5]: 36.5 µM | GI50 [6]: 6.05 µM | TGI [6]: 45.3 µM | GI50 [7]: 39.8 µM | TGI [7]: > 100 µM | GI50 [8]: 18.7 µM | TGI [8]: > 100 µM | GI50 [9]: 7.2 µM | TGI [9]: 57.8 µM | GI50 [10]: 22.8 µM | TGI [10]: > 100 µM

O=C(NCCc1ccccn1)OCc1nc2nc(Cl)nc(N3CCOCC3)c2[nH]1
GI50 [1]: 1.98 µM | TGI [1]: 6.75 µM | GI50 [2]: 0.816 µM | TGI [2]: 2.09 µM | GI50 [3]: 2.37 µM | TGI [3]: 12.6 µM | GI50 [4]: 2.44 µM | TGI [4]: 6.12 µM | GI50 [5]: 1.44 µM | TGI [5]: 6.22 µM | GI50 [6]: 1.12 µM | TGI [6]: 2.4 µM | GI50 [7]: 1.83 µM | TGI [7]: 4.96 µM | GI50 [8]: 1.77 µM | TGI [8]: 4.14 µM | GI50 [9]: 1.69 µM | TGI [9]: 3.8 µM | GI50 [10]: 1.67 µM | TGI [10]: 3.32 µM

OCc1ccc(-c2cscc2-c2ccc(CO)o2)o1
GI50 [1]: 7.03 µM | TGI [1]: > 100 µM | GI50 [2]: 1.65 µM | TGI [2]: > 69.5 µM | GI50 [3]: 3.55 µM | TGI [3]: 37.6 µM | GI50 [4]: 1.97 µM | TGI [4]: 4.83 µM | GI50 [5]: 32.9 µM | TGI [5]: > 100 µM | GI50 [6]: > 20.8 µM | TGI [6]: > 89.5 µM | GI50 [7]: > 100 µM | TGI [7]: > 100 µM | GI50 [8]: 64.6 µM | TGI [8]: > 100 µM | GI50 [9]: > 100 µM | TGI [9]: > 100 µM | GI50 [10]: > 100 µM | TGI [10]: > 100 µM
